According to patent US20260035722A1, “METHOD FOR LIQUEFYING AGAROSE AND PRODUCING NEOAGAROTETRAOSE/NEOAGAROHEXAOSE BY USING THERMOSTABLE GH16B BETA-AGARASE DERIVED FROM NOVEL AGAR-DEGRADING BACTERIUM” (Kyungpook National University Industry-Academic Cooperation …, priority 2022, published 2026):

What was measured:
GH16B β-agarase = assay: Agarase activity assay (DNS method): effects of metal ions, reducing agent and EDTA on enzymatic activity; format: biochemical, Cellvibrio sp. KY-GH-1; details: for Relative activity (%): relative to untreated control, mean ± SD (n = 3); for Effect on the enzymatic activity: 0.5 to 2.5 mM
Experimental: (§1) Quantitative analysis of GH16B β-agarase activity was performed using the DNS method, which detects reducing sugars released from agarose. The enzyme solution (100 μL) was mixed with an equal volume of 0.8% melted agarose in an appropriate buffer. The content of reducing sugars formed in the reaction mixture was determined colorimetrically using DNS reagent after 30 min of incubation at 50° C. The amount of enzyme that produced reducing power equivalent to 1 μmol of D-galactose per min was defined as one unit of enzymatic activity.
(§2) The optimal temperature was determined using 50 mM Tris-HCl buffer (pH 7.0) for 30 min over a temperature range of 25 to 70° C. The optimal pH was determined using 50 mM Mollvaine buffer ([…] to 7.5) and 50 mM Tris-HCl buffer (pH 7.5 to 10.0). For temperature and pH stability assays, aliquots of enzyme were preincubated at the indicated temperature and pH for the indicated time, and then the relative enzyme activity was measured under standard assay conditions (30 min, 50° C., 50 mM Tris-HCl buffer, pH 7.0). The kinetic parameters of GH16B β-agarase were determined by adding a known amount of the enzyme solution to the agarose substrate solution (1 to 5 mg/mL agarose in 50 mM Tris-HCl, pH 7.0). The Lineweaver-Burk equation, generated via GraphPad Prism 8 statistical package (GraphPad Software Inc., USA), was used to calculate Km and Vmax values. To examine the effects of metal ions, reducing agent, and chelator EDTA on enzymatic activity, various metal ions (CaCl2, CuSO4, KCl, MgCl2, MnCl2, MnSO4, and NaCl), TCEP, or EDTA were used at the indicated concentrations under standard analytical conditions.

[1] = Experimental: as §1
as §2, with “The optimal temperature was determined using 50 mM Tris-HCl buffer (pH 7.0) for 30 min over a temperature range of 25 to 70° C.” left out

[2] = Substrate hydrolysis and agarose liquefaction analysed by TLC and MALDI-TOF/TOF MS; format: biochemical
Experimental: TLC analysis was performed for GH16B β-agarase-catalyzed hydrolysates of agarose, NAOS, or AOS on Silica Gel 60 aluminum plates, which were developed with n-butanol-ethanol-H2O [3:2:2 (v/v)]. To detect oligosaccharides, a visualization solution (containing 0.2% (w/v) naphthoresorcinol, 10% (v/v) H2SO4, ethanol) was sprayed, followed by heating at 80° C. NA2 and the NAOS standard mixture containing NA2-NA18 were used as standards.
MALDI-TOF/TOF MS was performed according to previously described methods to analyze the hydrolytic products of agarose or AOS through enzymatic reactions. The assisted laser desorption/ionization tandem time-of-flight mass spectrometry (MALDI-TOF/TOF MS) was performed in the positive ion reflectron mode using the ultraflextreme system (Bruker Daltonics). The purified reaction product was dissolved in water, 1 μL of the dissolved reaction product was spotted onto a stainless steel target plate, and 0.3 μL of 0.01 M NaCl and […] of 50 mg/mL 2,5-dihydroxybenzoic acid in 50% acetonitrile were added thereto. The spots were rapidly dried under vacuum for homogeneous crystallization. Each acquired spectrum represents the combined signal from 800 laser shots at each of 3 random locations on the spot, totaling 2,400 laser shots, using a 1-kHz laser. The laser attenuator offset and range were set at 68% and 15%, respectively, with the laser focus set at 50%. Mass spectra were recorded over an m/z range of 0 to 5,100. To obtain high-resolution data, the detector sampling rate was set at a maximum of 4.00 giga samples/s, and the detector gain was set at 4.0×. Mass spectra were externally calibrated using maltooligosaccharides isolated from commercial beer. A ladder of hexose polymers, spaced 1 hexose unit (162.053 Da) apart, provided comprehensive coverage of the entire mass acquisition range, enabling the accurate mass calibration of the MALDI-TOF/TOF MS just prior to the sample analysis. Raw MS data were processed with FlexAnalysis software (version 3.3; Bruker Daltonics). […]

[3] = Kinetic parameters of GH16B β-agarase (Lineweaver-Burk, DNS method); format: biochemical; details: for agarose
Experimental: as §1, §2

[4] = Zymogram for agarase activity on LB agarose plates (Lugol's iodine); format: cell-based, E. coli BL21 (DE3) pLysS transformants; details: among transformants expressing GH16A, GH16B, GH16C, GH16D β-agarases
Experimental: E. coli BL21 (DE3) pLysS transformants harboring the recombinant pET-30a plasmid containing GH16A, GH16B, GH16C, or GH16D were spotted onto LB agarose plates (containing 1.5% agarose ((Invitrogen, Life technology, Grand Island, NY, USA), 50 μg/mL chloramphenicol, 25 μg/mL kanamycin, and 0.1 mM IPTG) and then incubated for 3 days at 37° C. The plates were stained with Lugol's at room iodine solution temperature.

Row | Molecule | Relative activity (%) (GH16B β-agarase; 0.5 mM metal ion/chemical) | Relative activity (%) (GH16B β-agarase; 1.0 mM metal ion/chemical) | Relative activity (%) (GH16B β-agarase; 2.5 mM metal ion/chemical) | Effect on the enzymatic activity (GH16B β-agarase) | other results
1 | [Cl-].[Na+] [NaCl] | 100 (±0.30) % | 109 (±5.33) % | 101 (±2.25) % | no significant effect | 
2 | O=C(O)CCP(CCC(=O)O)CCC(=O)O [TCEP, tris(2-carboxyethyl)phosphine, reference compound] | 100 (±1.55) % | 109 (±2.85) % | 117 (±6.00) % |  | Enhancement of enzymatic activity (GH16B β-agarase; 5 to 15 mM TCEP, dose-dependent, 0.8 μg/mL enzyme, 0.4% agarose, pH 7.0, 50° C., 30 min): up to 1.6 fold
3 | O=C(O)CN(CCN(CC(=O)O)CC(=O)O)CC(=O)O [EDTA, ethylenediamine tetraacetic acid, reference compound] | 95 (±4.75) % | 95 (±2.02) % | 91 (±4.35) % | no significant effect | 
4 | O=S(=O)([O-])[O-].[Cu+2] [CuSO4] | 103 (±0.25) % | 97 (±1.45) % | 74% |  | 
5 | [Cl-].[K+] [KCl] | 103 (±1.20) % | 109 (±6.41) % | 104 (±3.45) % | no significant effect | 
6 | [Cl][Mn][Cl] [MnCl2] | 125 (±1.40) % | 163 (±2.60) % | 155 (±3.00) % |  | 
7 | [Ca+2].[Cl-].[Cl-] [CaCl2] | 96 (±1.80) % | 110 (±6.85) % | 103 (±0.90) % | no significant effect | 
8 | [Cl-].[Cl-].[Mg+2] [MgCl2] | 94 (±2.80) % | 107 (±0.80) % | 100 (±3.55) % | no significant effect | 
9 | O=S(=O)([O-])[O-].[Mn+2] [MnSO4] | 146 (±1.95) % | 156 (±0.70) % | 156 (±1.90) % |  | 
10 | GH16B β-agarase: Thermostable endolytic GH16 family β-agarase (SEQ ID NO: 1, 597 aa, 63.8 kDa) from Cellvibrio sp. KY-GH-1, expressed in E. coli (protein, listed as Cellvibrio sp.) MKKITSCIAAALLLSAPLASFAADWDSVPIPAAAGTGKTWQLQSISDEFNYTASPTVKPAEFNTRWNPSFINSWTGPGDSEFNAGHSYTSGGSLALQSSAKAGTNKIYTGIISSKETFTYPLYLEARVKHTGNTLANAVWMLSADSTQEIDAMESYGSDRAGQEWFDQRMHVSHHVFIRSPFQDYQPKDEGSWVVNPAGGTWRGAMHVYGVHWKDPWNLDYYIDGVKVRTVSGPAMIDPYNFTNGTGINKPLHIIIDVEHQDWRDVRPTAAELADTSKSIMFVDWIRVYKPVTSSATSSSNSVSSSSSSLSNSSSSSATTVIDFANYFDTGKSTASVAGDTYVGFNKSGSGNINYNTAGDWADYLVTLPSDGQYKIEVTTASPMTSGIGAKLSVDGIYVSTTSLAATGGWELYSASTLANNLSIGAGTHTVRIESTGTSAWQWNGDEIRVTKVGSAPVGSPTTPAPVAMIIQAESFSATGGVYDGFKTYSVNGVSAINYNQRGDWADYAVNVAADGSYTFNAYVSSPMSGAALEVSVDGVKVLTQAVPNNGSWDSFQKVSSASKIALTKGAHTIRVTSAGTTSSTWEWNADKFELIP |  |  |  |  | Optimum pH [1]: 7.0; Optimal temperature (highest activity) ([1]; 0.4% agarose, 0.8 μg/mL enzyme, pH 7.0, 30 min): 50 °C; Maximum activity retained ([1]; over the range of 25 to 60° C.): more than 80%; pH stability ([1]; pH 4): rapidly became inactive; Agarose concentration completely hydrolysed into NA4/NA6 ([2]; 1.6 μg/mL enzyme, 1 mM MnCl2, 10 mM TCEP, 50 mM Tris-HCl, pH 7.5, 50° C., 14 hours, magnetic stirring): up to 9.0%; End products of hydrolysis ([2]; AOS substrate): NA4/NA6 but also A5; End products of hydrolysis ([2]; agarose substrate): NA4 and NA6; Vmax [3]: 542.0 U/mg; kcat [3]: 576.3 s⁻¹; Km ([3]; 50 mM Tris-HCl, pH 7.0): 14.40 mg/mL; Agarose-degrading activity (bright clear zone around the colonies) [4]: highest
